Key:
children with ADHD [1] = experiment: Reported side effects after single drug dose and TMS; format: in vivo, human
Description: (§1) The study is a randomized, double-blind, crossover design comparing the effects of single doses of atomoxetine (ATX) and methylphenidate (MPH). Sixteen patients (age 8-17 years, mean age=12, ±3; 2 girls) participate. Nine have TS. Medication doses are clinically relevant: approximately 0.5 mg/kg for MPH and 1.0 mg/kg for ATX, administered as follows:
(§2) 1) subjects 20-29 kg→10 mg MPH, 20 mg ATX; 2) subjects 30-49 kg→20 mg MPH, 40 mg ATX; 3) subjects 50 kg and above→30 mg MPH, 60 mg ATX. Subjects and investigators are blind to the order of treatment throughout the study. The one-week interval between study visits is based on published pharmacokinetic data for single doses of ATX.

children with ADHD [2] = details: single 10 mg dose, Moll et al. (2000); cited from earlier work
children with ADHD [3] = experiment: Paired and single TMS of motor cortex measuring short interval cortical inhibition (SICI) before and after single drug doses; format: in vivo, human; details: for Cortical Inhibition (SICI), post-medication: 90 minutes later
Description: Accordingly, sixteen children with ADHD, aged 8-17, are studied. Seven are homozygotes for the 10-repeat allele. Subjects are given single oral doses of 0.5 mg/kg methylphenidate and 1.0 mg/kg atomoxetine at visits separated by one week in a randomized, double-blind crossover design. Paired and single TMS are used to measure SICI before and after drug administration. Medication and genotype effects on SICI are estimated with repeated measures, mixed model regression. […] Some variation in ADHD medication-induced neurophysiological responses is explained by differences in the number of 3′-UTR, 10-repeat VNTR alleles in DAT1.
as §1, §2
Neurophysiological studies are performed as described by Gilbert et al. ((2006) Neuropsychopharmacology 31 :442-449). TMS is performed by an investigator blind to genotype and clinical ratings.
Resting and active motor threshold (RMT and AMT) are measured using the method described in Mills and Nithi ((1997) Muscle and Nerve 20:570-576). SICI and intracortical facilitation (ICF) are measured with the Abductor Pollicis Brevis (APB) at rest, according to established paradigms (Kujirai et al. (1993) J. Physiol. 471:501-519; Ziemann et al. (1997) Electroencelphalogr. Clin. Neurophysiol. 105:430-437). SICI is measured with a conditioning pulse, 1% of stimulator output below AMT (˜70% of RMT), delivered 3 msec before a suprathreshold test pulse. ICF is measured with the conditioning pulse 10 msec before the test pulse. Twenty trials at each interval and 20 unconditioned test pulses are delivered in random order. SICI and ICF are expressed as the ratios of the mean motor evoked potential (MEP) amplitudes evoked by the pulse pairs divided by the mean amplitude of the MEP from the single test pulses.
After baseline TMS testing, subjects are administered study medication, and all measurements are repeated 90 minutes later, consistent with expected peak serum drug levels. Each TMS session takes approximately 30 minutes.
Primary analysis. The primary outcome of interest for this study is ADHD-medication, genotype, and medication*genotype effects on cortical inhibition (SICI). SICI measures are subjected to a mixed model, repeated measures analysis of variance using PROC MIXED. After assuring that baselines are not different and that there are no effects of order, we then model SICI=medication+DAT genotype+medication*genotype, combining baselines. Age and ADHD severity scores are also entered into the models as potential explanatory covariates. ICF is modeled in the same manner to determine if any effects are specific to cortical inhibition.
Secondary analyses. The secondary outcome of interest is to compare ATX and MPH effects on cortical inhibition (SICI). Two repeated measure regressions are performed: 1) the baselines-combined model above, and 2) a day-of-visit, baseline-adjusted model. Genotypes are entered to estimate genotype-specific effects of ATX vs. MPH. The Tic phenotype is entered to estimate TIC*medication and TIC*ATX vs. TIC*MPH effects. In addition, using Spearman, correlations of changes in SICI and ICF are assessed for ATX and MPH, and for SICI and ADHD severity.

ADHD patients = details: cited from earlier work
[4] = DAT1 10-repeat homozygotes, single oral dose
[5] = DAT 9, 10 genotype, single oral dose, baseline-adjusted estimate
[6] = DAT 10, 10 genotype, single oral dose, baseline-adjusted estimate
[7] = No Tics, single oral dose, baseline-adjusted estimate
[8] = Tics, single oral dose, baseline-adjusted estimate
[9] = all subjects, single oral dose ~1.0 mg/kg ATX or ~0.5 mg/kg MPH, adjusted for day-of-visit pre-treatment SICI, MEP amplitude ratio
[10] = heterozygotes (single 10-repeat DAT1 allele), single oral dose
[11] = individuals with ADHD and no TS, single oral dose
[12] = patients with ADHD and TS, single oral dose

SMILES: COC(=O)C(c1ccccc1)C1CCCCN1 (stereo not shown) [MPH, methylphenidate]
- Severity rating of side effects (children with ADHD [1]; after drug/TMS): mild, except for one child who reports a moderate headache
- Side effect: abdominal pain (number of reports) (children with ADHD [1]; after drug/TMS): 1
- Side effect: arm/other pain (number of reports) (children with ADHD [1]; after drug/TMS): 2
- Side effect: headache (number of reports) (children with ADHD [1]; after drug/TMS): 3
- Side effect: hearing change (number of reports) (children with ADHD [1]; after drug/TMS): 1
- Side effect: numbness/tingling (number of reports) (children with ADHD [1]; after drug/TMS): 1
- Number of subjects reporting side effects (children with ADHD [1]; of 16 subjects, after drug/TMS): 6 subjects
- Effect on SICI (children with ADHD [2]): significantly increase (normalize) SICI
- Effect of medication on SICI (children with ADHD [3]; [4]): slight decrease in SICI
- Cortical Inhibition (SICI), post-medication (children with ADHD [3]; [5]): 0.47
- Cortical Inhibition (SICI), post-medication (children with ADHD [3]; [6]): 0.61
- Cortical Inhibition (SICI), post-medication (children with ADHD [3]; [7]): 0.64
- Cortical Inhibition (SICI), post-medication (children with ADHD [3]; [8]): 0.44
- Cortical Inhibition (SICI), post-medication (children with ADHD [3]; [9]): 0.54
- Effect of medication on SICI (children with ADHD [3]; [10]): tend to increase (normalize) SICI
- Effect of medication on SICI (children with ADHD [3]; [11]): decrease SICI
- Effect of medication on SICI (children with ADHD [3]; [12]): increase (normalize) SICI
- Clinical response by DAT1 genotype (ADHD patients; individuals with the DAT1 10/10 genotype, e.g. Cheon et al. (2005)): poorer clinical response

SMILES: CNCC[C@@H](Oc1ccccc1C)c1ccccc1 [ATX, atomoxetine]
- Number of subjects reporting side effects (children with ADHD [1]; both, human, in vivo): 4 subjects
- Side effect: headache (number of reports) (children with ADHD [1]; both, human, in vivo): 3
- Side effect: loss of appetite (number of reports) (children with ADHD [1]; both, human, in vivo): 2
- Side effect: nausea (number of reports) (children with ADHD [1]; both, human, in vivo): 2
- Side effect: numbness/tingling (number of reports) (children with ADHD [1]; both, human, in vivo): 1
- Side effect: scalp pain (number of reports) (children with ADHD [1]; both, human, in vivo): 1
- Side effect: stomach pain (number of reports) (children with ADHD [1]; both, human, in vivo): 1
- Severity rating of side effects (children with ADHD [1]; in vivo): mild
- Effect of medication on SICI (children with ADHD [3]; [4]): slight decrease in SICI
- Cortical Inhibition (SICI), post-medication (children with ADHD [3]; [5]): 0.51
- Cortical Inhibition (SICI), post-medication (children with ADHD [3]; [6]): 0.66
- Cortical Inhibition (SICI), post-medication (children with ADHD [3]; [7]): 0.62
- Cortical Inhibition (SICI), post-medication (children with ADHD [3]; [8]): 0.56
- Cortical Inhibition (SICI), post-medication (children with ADHD [3]; [9]): 0.59
- Effect of medication on SICI (children with ADHD [3]; [10]): tend to increase (normalize) SICI
- Effect of medication on SICI (children with ADHD [3]; heterozygotes (single 10-repeat DAT1 allele), single oral dose, listed as Atomoxetine): increases (improves) SICI
- Effect of medication on SICI (children with ADHD [3]; [11]): decrease SICI
- Effect of medication on SICI (children with ADHD [3]; [12]): increase (normalize) SICI
- ADHD patients who do not respond to treatment (non-response rate) (ADHD patients; clinical evidence, Michelson et al. (2002)): approximately 40%

— US20080020387A1, “BIOMARKER-OPTIMIZED ADHD TREATMENT” (priority 2006, published 2008)
